Source: PMC3855799 (PLoS ONE, 2013)
“And” between values parts separate entries of the source, which are not always exact repeats. Equal entries are not always repeated.

Target: hNav1.7 alpha subunit (Homo sapiens, UniProt Q15858)
Experiment: Electrophysiology using Sophion QPatch: inhibition of hNav1.7 currents
Assay type: cell-based
Conditions: QPatch 16X whole cell voltage clamp, hNav1.7 alpha HEK 293; holding -80 mV, -120mV for 100ms, step to 0mV; peak inward current; cumulative doses 100pM to 10µM, 10 minutes per dose; extracellular buffer pH 7.4 + 0.1% BSA; n = 9-11 (given for HwTx-IV(acid)); spread type not stated; read-out: IC50 on Nav1.7
Description: Electrophysiology using Sophion QPatch^TM
hNav1.7 alpha HEK 293 cell line (NM_002977.2) was obtained from Millipore and cells were cultured in a 50/50 mix of DMEM and Hams F-12 growth media supplemented with 10% FBS. Cells were passaged by Detachin (Genlantis) treatment (5 minutes), seeded 48-72 hours prior to experiments and used between passage 5 and 10. Cells were harvested at 70% confluency and resuspended by trituration in 8ml of Ex-cell ACF CHO serum free media (Sigma) + 20mM HEPES giving a cell density of 2-3x10^6cells/ml.
Solutions for electrophysiology: Extracellular solution contained (in mM) NaCl (145), KCl (2), CaCl2 (2), MgCl2 (1), HEPES (10), pH 7.4 with NaOH, osmolarity adjusted to 300 mOsm with sucrose. Intracellular solution contained (in mM), CsF (140), NaCl (10), EGTA (1), HEPES (10), pH 7.2 with CsOH, osmolarity adjusted to 325 mOsm with sucrose.
Serial dilutions were made in extracellular buffer + 0.1% BSA. Cumulative dose response curves were constructed with doses of 1e-10 to 1e-5M (100pM to 10µM). Each dose was applied for 10 minutes with 3x5µl compound additions spaced 2 seconds apart (Note that complete solution exchange is achieved with volumes of ~2µl).
Nav1.7 currents were measured using the automated electrophysiology platform Qpatch 16X (Sophion) in single hole configuration. […] To measure Nav1.7 currents, membrane potential was held at -80 mV then stepped to -120mV for 100ms to remove fast inactivation, followed by a step to 0mV for 10ms to activate Nav1.7 then returned to -120mV for 100ms. This voltage protocol was repeated at a rate of 0.2Hz with a the membrane potential held at -80mV between sweeps. Data were sampled at 10kHz and filtered using a 4 pole Bessel filter at 3kHz. P/N leak subtraction was utilized with a leak sweep of -10%. Series resistance was compensated 75% as standard. Liquid junction potentials were not corrected.
Peak inward current at 0mV was normalised to cell capacitance (pA/pF). […]

hNav1.7 alpha subunit, sequence (Q15858 1-1977 isoform Q15858-3): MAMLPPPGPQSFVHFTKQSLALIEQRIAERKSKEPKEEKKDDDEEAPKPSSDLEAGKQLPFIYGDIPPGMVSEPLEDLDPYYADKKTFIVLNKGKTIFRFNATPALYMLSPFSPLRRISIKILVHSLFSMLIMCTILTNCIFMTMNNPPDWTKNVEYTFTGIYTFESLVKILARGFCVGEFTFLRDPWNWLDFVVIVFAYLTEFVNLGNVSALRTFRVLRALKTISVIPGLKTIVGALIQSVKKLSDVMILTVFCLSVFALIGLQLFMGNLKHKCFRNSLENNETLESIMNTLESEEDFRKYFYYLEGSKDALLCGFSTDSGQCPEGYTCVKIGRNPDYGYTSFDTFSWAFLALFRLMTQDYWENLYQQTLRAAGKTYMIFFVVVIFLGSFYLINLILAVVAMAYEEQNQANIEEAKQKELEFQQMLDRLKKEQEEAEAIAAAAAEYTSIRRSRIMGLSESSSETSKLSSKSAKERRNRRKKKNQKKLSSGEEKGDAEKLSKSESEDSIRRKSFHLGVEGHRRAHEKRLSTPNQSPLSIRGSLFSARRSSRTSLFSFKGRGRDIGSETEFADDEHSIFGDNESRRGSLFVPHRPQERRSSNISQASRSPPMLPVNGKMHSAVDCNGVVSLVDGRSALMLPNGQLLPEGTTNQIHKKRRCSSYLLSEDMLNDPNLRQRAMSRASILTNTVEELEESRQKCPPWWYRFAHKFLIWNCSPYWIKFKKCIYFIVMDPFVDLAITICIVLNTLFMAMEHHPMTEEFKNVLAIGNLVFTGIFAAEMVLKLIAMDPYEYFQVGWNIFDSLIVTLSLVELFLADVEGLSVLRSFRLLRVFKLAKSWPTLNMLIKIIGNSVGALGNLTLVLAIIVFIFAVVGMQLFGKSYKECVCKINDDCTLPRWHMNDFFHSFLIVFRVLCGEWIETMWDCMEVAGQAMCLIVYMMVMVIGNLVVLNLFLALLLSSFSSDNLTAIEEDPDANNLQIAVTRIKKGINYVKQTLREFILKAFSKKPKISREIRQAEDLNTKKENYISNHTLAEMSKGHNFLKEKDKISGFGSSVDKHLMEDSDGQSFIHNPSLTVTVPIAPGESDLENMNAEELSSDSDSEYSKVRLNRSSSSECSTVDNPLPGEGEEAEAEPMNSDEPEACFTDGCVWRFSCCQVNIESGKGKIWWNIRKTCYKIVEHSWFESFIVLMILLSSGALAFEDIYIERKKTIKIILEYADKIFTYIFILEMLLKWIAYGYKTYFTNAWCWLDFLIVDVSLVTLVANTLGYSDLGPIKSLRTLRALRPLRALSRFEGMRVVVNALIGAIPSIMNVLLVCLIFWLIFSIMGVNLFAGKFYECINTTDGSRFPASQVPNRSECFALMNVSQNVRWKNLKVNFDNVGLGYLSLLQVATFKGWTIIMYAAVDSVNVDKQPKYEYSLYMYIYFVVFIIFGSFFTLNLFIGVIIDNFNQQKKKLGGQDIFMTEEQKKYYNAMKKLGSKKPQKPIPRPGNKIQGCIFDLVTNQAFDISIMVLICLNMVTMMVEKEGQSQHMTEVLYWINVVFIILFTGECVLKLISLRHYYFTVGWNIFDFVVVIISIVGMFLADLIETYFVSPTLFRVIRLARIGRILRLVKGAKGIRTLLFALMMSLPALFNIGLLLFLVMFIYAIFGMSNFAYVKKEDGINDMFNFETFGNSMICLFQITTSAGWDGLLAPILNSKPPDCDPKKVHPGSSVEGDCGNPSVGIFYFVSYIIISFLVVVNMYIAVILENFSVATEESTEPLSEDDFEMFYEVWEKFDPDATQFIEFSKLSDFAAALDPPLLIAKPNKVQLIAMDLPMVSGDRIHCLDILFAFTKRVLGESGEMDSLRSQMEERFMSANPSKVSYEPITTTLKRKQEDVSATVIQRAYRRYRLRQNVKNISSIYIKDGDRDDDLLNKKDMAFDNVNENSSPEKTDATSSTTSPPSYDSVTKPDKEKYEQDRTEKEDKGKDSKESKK

Row | Compound | IC50
1 | CC[C@H](C)[C@H](NC(=O)[C@H](CCC(N)=O)NC(=O)[C@H](Cc1ccc(O)cc1)NC(=O)[C@H](CCCCN)NC(=O)[C@@H]1CSSC[C@@H]2NC(=O)[C@H](CCC(N)=O)NC(=O)[C@H](CC(=O)O)NC(=O)[C@H](CC(N)=O)NC(=O)[C@H](CO)NC(=O)[C@@H]3CCCN3C(=O)[C@H](CC(N)=O)NC(=O)[C@@H]3CSSC[C@H](NC(=O)[C@H](C(C)C)NC(=O)[C@H](CC(C)C)NC(=O)[C@H](CCCCN)NC(=O)[C@H](CO)NC(=O)[C@H](CO)NC(=O)[C@H](CCCCN)NC(=O)[C@H](CSSC[C@H](NC(=O)[C@@H](N)CCC(=O)O)C(=O)N[C@@H](CC(C)C)C(=O)N[C@@H](CCC(=O)O)C(=O)N[C@@H]([C@@H](C)CC)C(=O)N[C@@H](Cc4ccccc4)C(=O)N[C@@H](CCCCN)C(=O)N[C@@H](C)C(=O)N3)NC2=O)C(=O)N[C@@H](CO)C(=O)N[C@@H](CCCNC(=N)N)C(=O)N[C@@H](CCCCN)C(=O)N[C@@H]([C@@H](C)O)C(=O)N[C@@H](CCCNC(=N)N)C(=O)N[C@@H](Cc2c[nH]c3ccccc23)C(=O)N1)C(=O)NCC(N)=O [HwTx-IV^G36(amide)] | 33 ± 9 nM
2 | CC[C@H](C)[C@H](NC(=O)[C@H](CCC(N)=O)NC(=O)[C@H](Cc1ccc(O)cc1)NC(=O)[C@H](CCCCN)NC(=O)[C@@H]1CSSC[C@@H]2NC(=O)[C@H](CCC(N)=O)NC(=O)[C@H](CC(=O)O)NC(=O)[C@H](CC(N)=O)NC(=O)[C@H](CO)NC(=O)[C@@H]3CCCN3C(=O)[C@H](CC(N)=O)NC(=O)[C@@H]3CSSC[C@H](NC(=O)[C@H](C(C)C)NC(=O)[C@H](CC(C)C)NC(=O)[C@H](CCCCN)NC(=O)[C@H](CO)NC(=O)[C@H](CO)NC(=O)[C@H](CCCCN)NC(=O)[C@H](CSSC[C@H](NC(=O)[C@@H](N)CCC(=O)O)C(=O)N[C@@H](CC(C)C)C(=O)N[C@@H](CCC(=O)O)C(=O)N[C@@H]([C@@H](C)CC)C(=O)N[C@@H](Cc4ccccc4)C(=O)N[C@@H](CCCCN)C(=O)N[C@@H](C)C(=O)N3)NC2=O)C(=O)N[C@@H](CO)C(=O)N[C@@H](CCCNC(=N)N)C(=O)N[C@@H](CCCCN)C(=O)N[C@@H]([C@@H](C)O)C(=O)N[C@@H](CCCNC(=N)N)C(=O)N[C@@H](Cc2c[nH]c3ccccc23)C(=O)N1)C(=O)NCC(=O)O [HwTx-IV^G36(acid)] | 190 nM and 195 nM
3 | CC[C@H](C)[C@H](NC(=O)[C@H](CCC(N)=O)NC(=O)[C@H](Cc1ccc(O)cc1)NC(=O)[C@H](CCCCN)NC(=O)[C@@H]1CSSC[C@@H]2NC(=O)[C@H](CCC(N)=O)NC(=O)[C@H](CC(=O)O)NC(=O)[C@H](CC(N)=O)NC(=O)[C@H](CO)NC(=O)[C@@H]3CCCN3C(=O)[C@H](CC(N)=O)NC(=O)[C@@H]3CSSC[C@H](NC(=O)[C@H](C(C)C)NC(=O)[C@H](CC(C)C)NC(=O)[C@H](CCCCN)NC(=O)[C@H](CO)NC(=O)[C@H](CO)NC(=O)[C@H](CCCCN)NC(=O)[C@H](CSSC[C@H](NC(=O)[C@@H](N)CCC(=O)O)C(=O)N[C@@H](CC(C)C)C(=O)N[C@@H](CCC(=O)O)C(=O)N[C@@H]([C@@H](C)CC)C(=O)N[C@@H](Cc4ccccc4)C(=O)N[C@@H](CCCCN)C(=O)N[C@@H](C)C(=O)N3)NC2=O)C(=O)N[C@@H](CO)C(=O)N[C@@H](CCCNC(=N)N)C(=O)N[C@@H](CCCCN)C(=O)N[C@@H]([C@@H](C)O)C(=O)N[C@@H](CCCNC(=N)N)C(=O)N[C@@H](Cc2c[nH]c3ccccc23)C(=O)N1)C(=O)O [HwTx-IV(acid)] | 463 to 727 nM and 727 nM and 463 nM
